Laboratory results published in patent US20250368634A1, “PHENYL AMIDE COMPOUNDS AND METHODS OF USE” (SCHRÖDINGER, INC., priority 2022, published 2025).

Biological target: SOS1-KRas (G12C) (Homo sapiens (Human), UniProt Q07889)
Assay: SOS1-KRas (G12C) FRET Assay
Format: binding
Settings: not given

Chain of SOS1-KRas (G12C) (Q07889 564-1049, stated change not applied): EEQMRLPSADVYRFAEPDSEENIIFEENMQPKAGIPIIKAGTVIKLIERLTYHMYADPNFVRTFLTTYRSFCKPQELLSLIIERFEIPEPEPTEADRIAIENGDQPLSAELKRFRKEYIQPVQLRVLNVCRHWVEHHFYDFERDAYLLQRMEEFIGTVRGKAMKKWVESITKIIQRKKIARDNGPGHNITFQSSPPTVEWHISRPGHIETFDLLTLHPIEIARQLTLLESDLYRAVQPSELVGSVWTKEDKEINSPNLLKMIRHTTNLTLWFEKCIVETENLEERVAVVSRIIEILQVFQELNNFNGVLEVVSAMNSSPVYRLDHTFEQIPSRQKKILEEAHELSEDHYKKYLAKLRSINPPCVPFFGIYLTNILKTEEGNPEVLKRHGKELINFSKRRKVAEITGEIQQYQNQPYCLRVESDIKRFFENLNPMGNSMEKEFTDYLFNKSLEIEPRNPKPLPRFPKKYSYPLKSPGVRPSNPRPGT

Row | SMILES | IC50
1 | C[C@@H](NC(=O)c1cc(-c2ccncc2)c(F)cc1N[C@H]1CN2CCC1CC2)c1cccc(C(F)F)c1F (single isomer, unassigned) [Example 58] | 7.9 nM
2 | C[C@@H](NC(=O)c1cc(N2CC[C@]23CCOC3)c(F)cc1NC1CCN(C)CC1)c1cccc(C(F)F)c1F (single isomer, unassigned) [Example 35] | 81.5 nM

Same assay, conditions: inhibition of SOS1:KRAS interaction; 0.5 nM His10-SOS1 (res. 564-1049), 2.5 nM GST-KRAS (res. 1-169, G12C); 2 hrs at RT

Row | IC50 | SMILES
3 | 244 nM | C[C@@H](NC(=O)c1cc(C(=O)N(C)C)c(F)cc1NC1CCN(C)CC1)c1cccc(C(F)F)c1F [Example 75, (R)—N1-(1-(3-(difluoromethyl)-2-fluorophenyl)ethyl)-4-fluoro-N3,N3-dimethyl-6-((1-methylpiperidin-4-yl)amino)isophthalamide]
4 | 230 nM | COC(=O)c1ccc(NC2CCN(C)CC2)c(C(=O)N[C@H](C)c2cccc(C(F)F)c2F)c1 [Example 78, methyl (R)-3-((1-(3-(difluoromethyl)-2-fluorophenyl)ethyl)carbamoyl)-4-((1-methylpiperidin-4-yl)amino)benzoate]
5 | 39.6 nM | C[C@@H](NC(=O)c1cc(N2CC[C@@]3(CCOC3)C2)c(F)cc1NC1CCN(C)CC1)c1cccc(C(F)F)c1F (single isomer, unassigned) [Example 30]
6 | 74.1 nM | C[C@@H](NC(=O)c1cc(N2CCOCC2)c(F)cc1NC1(C)CN(C)C1)c1cccc(C(F)F)c1F [Example 54, (R)—N-(1-(3-(difluoromethyl)-2-fluorophenyl)ethyl)-2-((1,3-dimethylazetidin-3-yl)amino)-4-fluoro-5-morpholinobenzamide]

The next lines start with the compound.

Row | SMILES | IC50
7 | C[C@@H](NC(=O)c1cc(N2CCC(F)(F)C2)c(F)cc1N[C@@H]1CN2CCC1CC2)c1cccc(C(F)F)c1F [Example 26, N—((R)-1-(3-(difluoromethyl)-2-fluorophenyl)ethyl)-5-(3,3-difluoropyrrolidin-1-yl)-4-fluoro-2-(((S)-quinuclidin-3-yl)amino)benzamide] | 88.8 nM
8 | C[C@@H](NC(=O)c1cc(N2CCOCC2)c(Cl)cc1N[C@@H]1CN2CCC1CC2)c1cccc(C(F)F)c1F [Example 81, 4-chloro-N—((R)-1-(3-(difluoromethyl)-2-fluorophenyl)ethyl)-5-morpholino-2-(((S)-quinuclidin-3-yl)amino)benzamide] | 12.6 nM
9 | CC(=O)N1CC2(C1)CN(c1cc(C(=O)N[C@H](C)c3cccc(C(F)(F)F)c3C)c(NC3CCN(C)CC3)cc1F)C2 [Example 20, (R)-5-(6-acetyl-2,6-diazaspiro[3.3]heptan-2-yl)-4-fluoro-N-(1-(2-methyl-3-(trifluoromethyl)phenyl)ethyl)-2-((1-methylpiperidin-4-yl)amino)benzamide] | 26.4 nM
10 | C[C@@H](NC(=O)c1cc(N2CCOCC2)c(C#N)cc1N[C@@H]1CN2CCC1CC2)c1cccc(C(F)F)c1F [Example 25, 4-cyano-N—((R)-1-(3-(difluoromethyl)-2-fluorophenyl)ethyl)-5-morpholino-2-(((S)-quinuclidin-3-yl)amino)benzamide] | 7.4 nM
11 | C[C@@H](NC(=O)c1cc(N2CCOCC2)c(F)cc1NC1CCNCC1)c1cccc(C(F)F)c1F [Example 14, (R)—N-(1-(3-(difluoromethyl)-2-fluorophenyl)ethyl)-4-fluoro-5-morpholino-2-(piperidin-4-ylamino)benzamide] | 21.7 nM
12 | C[C@@H](NC(=O)c1cc(N2CCOCC2)c(F)cc1N[C@@H]1[C@@H]2C[C@H]1CN(C)C2)c1cccc(C(F)F)c1F [Example 17, N—((R)-1-(3-(difluoromethyl)-2-fluorophenyl)ethyl)-4-fluoro-2-(((1R,5S,6s)-3-methyl-3-azabicyclo[3.1.1]heptan-6-yl)amino)-5-morpholinobenzamide] | 98.9 nM
13 | C[C@@H](NC(=O)c1cc(N2C[C@H]3C[C@@H]2CO3)c(F)cc1NC1CCN(C)CC1)c1cccc(C(F)F)c1F [Example 2, 5-((1R,4R)-2-oxa-5-azabicyclo[2.2.1]heptan-5-yl)-N—((R)-1-(3-(difluoromethyl)-2-fluorophenyl)ethyl)-4-fluoro-2-((1-methylpiperidin-4-yl)amino)benzamide] | 99.5 nM
